Test results reported in US20250032580A1, “USE OF ADNF POLYPEPTIDES IN THERAPY” (RAMOT AT TEL-AVIV UNIVERSITY LTD., priority 2021, published 2025).
Entries after “also recorded” stand apart in the source; their conditions may differ.

Legend:
Adnp+/− mouse = test system: Adnp+/− mouse; design: key: corrections by NAP treatment (+); settings: second symbol of cell, cited from earlier work
[1] = test system: Shank3-Adnp-actin interactions; assay: Actin co-immunoprecipitations from mouse brain extracts
Description: De novo heterozygous mutations in ADNP reproduced the autistic ADNP syndrome. ADNP mutations impair microtubule (MT) function, essential for synaptic activity. The ADNP MT-associating fragment NAPVSIPQ (NAP) (SEQ ID NO 2) contains an MT end-binding protein interacting domain, SxIP (mimicking the active-peptide, SKIP, SEQ ID NO 21). The inventors hypothesized that not all ADNP mutations are similarly deleterious and that the NAPV portion of NAPVSIPQ is biologically active. Using the eukaryotic linear motif (ELM) resource, the inventors identified a Src homology 3 (SH3) domain-ligand association site in NAP responsible for controlling signaling pathways regulating the cytoskeleton, namely NAPVSIP (SEQ ID NO: 2). Altogether, the inventors mapped multiple SH3-binding sites in ADNP. […] Site-directed-mutagenesis, abolishing the p.Lys408Valfs*31 SH3-binding motif, produced MT toxicity. […] Lastly, SH3 and multiple ankyrin repeat domains protein 3 (SHANK3), a major autism gene product, interact with the cytoskeleton through an actin-binding motif to modify behavior.

SHANK3 mice [2] = assay: Grooming (repetitive behavior); assay type: in vivo, mouse; settings: sham-treated vs NAP-treated SHANK3 mice; data not shown
Experimental: Repetitive behavior, a key autistic feature, was also evaluated by measuring grooming frequency and duration.

[3] = Ivashko-Pachima and Gozes 2020; cited from earlier work
Tyr mice [4] = assay: Developmental milestone assessment of Tyr mouse pups; assay type: in vivo; design: key to NAP efficacy: global developmental delays: corrections by NAP treatment (+)
Experimental: Animals—Animals were housed under a 12-hour light/dark cycle, with food and water ad-libitum. Mouse pups were subcutaneously administrated with NAP [having an amino acid sequence NAPVSIPQ (SEQ ID NO: 2), 25 μg NAP/1 ml saline] as described (8, 12). At 21 days of age mice were administered daily intranasal NAP in vehicle solution (“DD”—7.5 mg/ml of NaCl, 1.7 mg/ml of citric acid, 3 mg/ml of disodium phosphate dihydrate, and 0.2 mg/ml of 50% benzalkonium chloride solution) (0.5 μg NAP/5p1 DD) (8, 9, 12, and U.S. Pat. No. 10,912,819 to Gozes). These mice continued to behavioral analysis as described hereinbelow. The noninvasive intranasal route was chosen as these experiments required daily handling and administration. Age (weeks) of mice during behavioral experiments (mean±SEM) was as follows: Catwalk-9.23±0.15, grooming-10±0.15, social approach-10.5±0.12, odor-discrimination-12.12±0.13, hanging-wire-13±0.14, hotplate-13.18±0.13. Group size was determined following previous experiments (12). Pups were randomly allocated to either the NAP or DD group according to sex and genotype. All procedures involving animals were conducted under the supervision and approval of the institutional animal care and use committee of Tel Aviv University and the Israeli Ministry of Health.
Developmental milestone assessment and fostering—This experiment included animals from 16 litters in 2 experimental batches. It was performed as previously described (12) with slight modifications. Experimenters were blinded to sex and genotype during experimental procedures. Sexes were grouped if no statistically significant sex differences were discovered.
Developmental milestone assessment: At p1 Tyr pups were tattooed and genotyped for the presence of the Tyr718 mutation and SRY as described above. The same day pups were randomized to either NAP or Saline treatment groups according to genotype and sex results and developmental milestone assessment was performed from p1 to p21. As animal randomization ended up with unequal male/female ratios for certain groups and no statistical differences were found between the sexes in any of the 4 treatment groups (T test), the sexes could not be separated, [That is except for eye opening, where a significant difference was observed between the sexes in the Tyr group (P=0.047, no significance in the other three treatment groups)]. Pup paws were tattooed using a 31-gauge needle and tattoo ink (Ketchum Manufacturing Co., catalog 329AA) for identification on P1 and, until P21, underwent daily measurements for length and weight and observation for eye opening. Pups were injected daily with NAP, 1 hour prior to the tests as previously described^1.
Briefly, for ear twitch reflex, a cotton tip was gently brushed against the tip of the ear three times, between postnatal days 7-15 or until the pup responded correctly for two consecutive days. For air righting reflex, the pup was held up-side down and released ˜10.5 cm above the cage, containing 5 cm of shavings. The test was performed between postnatal days 8-21 or until the pup landed on the shavings with all four paws, for two consecutive days. For surface righting reflex, pups were placed on their backs on a level surface, the test was performed between postnatal days 1-13 until the pups was able to right itself with all four paws on the surface in under a second for two consecutive days. For eye opening, mice were observed daily until both eyes were open (eyelids separated completely). For auditory startle, the pup was placed on a level surface and the experimenter clapped loudly twice until a visible startle response was evident for 2 consecutive days. The test was performed between days 7-18. For cliff aversion, pups were placed on the edge of a small box (approx. 4 cm in height) with both paws protruding over the edge of the box. Pups were allowed 30 sec to avoid the cliff and move themselves backwards. […]

SHANK3 mice [5] = assay: Eubacteriaceae (EubV3) microbiota; assay type: in vivo, mouse; settings: data not shown
Tyr mice [6] = assay: Ultrasonic vocalizations (USV) and syntax, DeepSqueak; assay type: in vivo, mouse; design: key to NAP efficacy: speech impediments: corrections by NAP treatment (+)
Experimental: USV: On P8, each pup was separated from the dam and placed in an empty cage for 6 minutes, in a quiet room and was recorded using the M500-384 USB Ultrasound Microphone (Petterson, Sweden). Pups were distinguished from one another using the tattoos listed above. After 6 minutes pups were reunited with its dam. Data were analyzed using DeepSqueak. Data were loaded onto DeepSqueak, frequencies between 40-70 kHz were analyzed using the mouse call network V2. Calls were denoised using post hoc denoising network. For syntax analysis, Syntax was classified using Wright K means network. Syntax transition probability charts were generated using DeepSqueak and Matlab. Further USV experiments were performed on P8 pups as previously described (12) with slight modifications.

**Q.** With CC[C@H](C)[C@H](NC(=O)[C@H](CO)NC(=O)[C@@H](NC(=O)[C@@H]1CCCN1C(=O)[C@H](C)NC(=O)[C@@H](N)CC(N)=O)C(C)C)C(=O)N1CCC[C@H]1C(=O)N[C@@H](CCC(N)=O)C(=O)O [NAP, NAPVSIPQ] as the molecule, how does the “NAP efficacy: cognitive impairments, behavioral deficits” value (Adnp+/− mouse; Adnp+/− mouse (8)) read?
**A.** +(odor)/+(8)

**Q.** And the “NAP efficacy: axonal transport” value (Adnp+/− mouse; Adnp+/− mouse)?
**A.** +/+

**Q.** What about the “NAP efficacy: gene expression patterns” value (Adnp+/− mouse; Adnp+/− mouse) of the same molecule?
**A.** +/+

**Q.** What about the “NAP efficacy: global developmental delays” value (Adnp+/− mouse; Adnp+/− mouse) of the same molecule?
**A.** +/+

**Q.** And the “NAP efficacy: microbiota” value (Adnp+/− mouse; Adnp+/− mouse)?
**A.** +/+

**Q.** And the “NAP efficacy: motor impediments” value (Adnp+/− mouse; Adnp+/− mouse)?
**A.** +/(gait)+

**Q.** What about the “NAP efficacy: short stature” value (Adnp+/− mouse; Adnp+/− mouse) of the same molecule?
**A.** +

**Q.** What about the “NAP efficacy: speech impediments” value (Adnp+/− mouse; Adnp+/− mouse) of the same molecule?
**A.** +/+ (syntax)

**Q.** And the “NAP efficacy: synaptic structural alterations” value (Adnp+/− mouse; Adnp+/− mouse)?
**A.** +/+

**Q.** And the “NAP efficacy: tauopathy, hyperphosphorylated Tau deposits” value (Adnp+/− mouse; Adnp+/− mouse)?
**A.** +/+

**Q.** What about the Shank3-Adnp-actin interactions [1] of the same molecule?
**A.** NAP-mediated normalization

**Q.** And the Grooming frequency (SHANK3 mice [2])?
**A.** higher grooming frequency than did NAP-treated SHANK3 mice

**Q.** What about the Cell penetration [3] of the same molecule?
**A.** bioavailable by endocytosis

**Q.** What about the Rooting reflex (Tyr mice [4]; Tyr mice, data not shown) of the same molecule?
**A.** induced rooting

**Q.** And the “NAP efficacy: global developmental delays” value (Tyr mice [4]; Tyr mouse, first symbol of cell)?
**A.** +/+

**Q.** What about the “Surface-righting, first day of acquisition” value (Tyr mice [4]; Tyr pups, daily s.c. NAP, WT 8.69±0.42, Tyr 10.14±0.36, mean±SEM) of the same molecule?
**A.** 8.81±0.33

**Q.** What about the “Air-righting, first day of acquisition” value (Tyr mice [4]; Tyr pups, daily s.c. NAP, WT 12.96±0.28, Tyr 15.29±0.15, mean±SEM) of the same molecule?
**A.** 14.63±0.38

**Q.** What about the Body weight (Tyr mice [4]; WT female mice, data not shown) of the same molecule?
**A.** no effect

**Q.** And the Eye opening (Tyr mice [4]; WT females, data not shown)?
**A.** no NAP effect

**Q.** What about the “Developmental milestones in WT littermates” value (Tyr mice [4]; WT littermates, data not shown) of the same molecule?
**A.** no effect on WT littermates except for the cliff aversion response

**Q.** And the Body weight (Tyr mice [4]; female Tyr pups, P1-P21)?
**A.** beneficial effect was visible from P10 and reached significance at P20-21

**Q.** What about the “Eye opening (day)” value (Tyr mice [4]; female Tyr pups, Tyr 16±0.37, WT 14.93±0.43) of the same molecule?
**A.** 14.78±0.46

**Q.** What about the Eye opening (Tyr mice [4]; males, data not shown) of the same molecule?
**A.** No genotype/NAP effect

**Q.** And the “EubV3 trend to change as a consequence of the SHANK3 mutation” value (SHANK3 mice [5])?
**A.** this trend was not observed in the treated mice

**Q.** And the “Number of syllables vocalized” value (Tyr mice [6]; NAP-treated Tyr males, 8 for WT and Tyr)?
**A.** 10

**Q.** What about the Syntax complexity (Tyr mice [6]; P8 Tyr pups, both sexes) of the same molecule?
**A.** powerful corrective effect on both sexes; also recorded: significant improvement with NAP treatment

**Q.** What about the “Total USVs produced” value (Tyr mice [6]; P8 Tyr pups, females and males) of the same molecule?
**A.** no NAP effects

**Q.** And the “NAP efficacy: speech impediments” value (Tyr mice [6]; Tyr mouse (syntax), first symbol of cell)?
**A.** +/+ (syntax)

**Q.** And the Syntax (Tyr mice [6]; WT pups, data not shown)?
**A.** minor varied impact
